From US6596863B2, “Medical composition containing nitroetheneamine Derivative or salt there of as active constituent” (Ishihara Sangyo Kaisha, Ltd., priority 1998, dated 2003)
pIC50: −log10 of the molar value. Like-named read-outs stand apart in the source and are kept apart here. Marks after values point to notes of the source that are not given here.

Key:
human MMP-7 = biological target: T1, human MMP-7 (Homo sapiens, UniProt P09237); assay: Enzyme inhibition activity against MMP-7 (matrilysin), fluorescent peptide substrate NFF-2; assay type: biochemical; details: human MMP-7, substrate NFF-2, 37° C. for 2.5 hours
T1 construct: purchased Kabushiki Kaisha Yagai Chuo Kenkyusho YU-31001
T1 sequence (P09237 95-267): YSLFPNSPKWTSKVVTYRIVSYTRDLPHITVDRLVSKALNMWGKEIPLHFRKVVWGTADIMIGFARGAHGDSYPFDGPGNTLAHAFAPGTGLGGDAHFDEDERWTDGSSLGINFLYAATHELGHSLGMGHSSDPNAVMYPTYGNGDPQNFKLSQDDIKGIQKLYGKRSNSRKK
Experimental: The inhibition activity against human MMP-7 was measured by the same method as the method for MMP-3, by using a MMP-7 solution (0.025 unit/ml; No. YU-31001, manufactured by Kabushiki Kaisha Yagai Chuo Kenkyusho, purity: at least 99.9%) and a fluorescent peptide substrate MOCAc—Arg-Pro-Lys-Pro-Tyr—Ala-Nva-Trp-Met-Lys(Dnp) -NH2 [NFF-2, No. 3167-v, manufactured by Peptide Institute, Inc.]. The enzymatic reaction was carried out at 37° C. for 2.5 hours in a dark place, and the relative fluorescence intensity was measured at a fluorescence wavelength of 400 nm with an excitation wavelength of 327 nm.

[1] = system: Meth A/AD cells (mouse fibrosarcoma); assay type: in vivo; parameters: Tumor volume (Day 22) Average ± standard deviation / Tumor growth inhibition ratio (%) / Tumor volume (Day 24) Average ± standard deviation: dose or concentration left out as unconfirmed; details: for inhibition ratio of tumor growth of Meth A/AD: intraperitoneal administration, total of 10 times, male BALB/c mouse, tumor volume vs vehicle control
Experimental: Meth A mouse fibrosarcoma cells intraperitoneally subcultured in mouse (supplied from Sasaki Institute) were cultured at 39° C. for 10 days in 5% CO2 (using 10% fetal bovine serum-containing RPMI culture medium (manufactured by Flow Laboratories)) and then inoculated subcutaneously to BALB/c mouse. The tumor grown for 30 days, was taken out and passed through a metal mesh to obtain single cells, which were again returned and continuously cultured in vitro (37° C.). […] On the other hand, the Meth A/AD strain always produces and secretes MMP-2 in the supernatant in in vitro culture, but when TNF-α (50 ng/ml) was added in the culture solution, it produced MMP-9 remarkably.
With reference to the method by Keneda et al (Cancer Research, Vol. 58, 290-295, 1998), the inhibitory effect on tumor growth were evaluated. Namely, 1×10^6 Meth A/AD cells cultured in vitro (suspended in 0.05 ml of a Hanks equilibrium salt solution) were intradermaly transplanted to the dosal skin of a male BALB/c AnNCrj mouse of 5 weeks old (purchased from Charles River Japan, Inc.) (Day 0). […] Compound No. 107 was suspended in a 1% Tween 80 physiological sodium chloride aqueous solution, and Compound No. 164 was dissolved in 100 mM Tris-HCl (pH 8.5)/150 mM NaCl, for administration. To the vehicle control group, the respective solvents containing no test materials were administered in the same manner. The measurement of the body weight and the observation of the general findings were carried out everyday up to Day 22 or 24, and the tumor diameters (the long diameter and the short diameter) were measured by a slide gauge every one day, and the difference in the tumor volume between the vehicle control group and the drug-treated group was evaluated. The tumor volume was calculated in accordance with the calculation formula of [(long diameter)×(short diameter)^2×½].

[2] = system: CPAE cells (bovine pulmonary-derived vascular endothelical cells); assay: Inhibitory action against capillary-like tube formation of vascular endothelial cells, three dimensional collagen gel culture; assay type: cell-based; details: for Number of networks Average ± SD: n = 5, Day 4
Experimental: With reference to the method disclosed in a literature (Hayashi, J. N. et al, Virchows arch. (B), Vol. 60,245-252, 1991, Lee, D. Y. et al, Life Science, Vol. 60, 127-134, 1997), evaluation was carried out by the following method.
7 Parts by volume of type I-a collagen (manufactured by Nitta Gelatin K. K.) and 2 parts by volume of Dulbecco's Modified Eagle Medium (concentration: 5 times, containing no NaHCO3; No. D-5648, manufactured by Sigma Co.) were thoroughly mixed under cooling with ice, and then one part by volume of a collagen gel-reconstructing buffer solution (2.2% NaHCO3/0.2M HEPES/0.05N NaOH) was added thereto. To withdraw bubbles, centrifugal separation and supersonic treatment were carried out, and then 400 μl of the gel was introduced into 24 well multi-well plate (Code 3047, manufactured by Falcon Co.) and incubated at 37° C. for about 10 minutes for gelation.
On the gelled collagen, CPAE cells (bovine pulmonary-derived vascular endothelical cells; ATCC CCL209, purchased from Dainippon Seiyaku K. K.) was inoculated in a concentration of 4×10^4 cells/400 μl/well (Day 0). Thereafter the cells were cultured overnight at 37° C. in a 5% CO2 incubator. Next day (Day 1), after confirming that the cells were normally proliferating, the culture solution was removed by aspiration, and a fresh collagen gel (prepared in the same manner as the above layer) was overlaid in an amount of 200 μl/well and gelled.
On the gel, the test materials dissolved in 10% fetal bovine serum-containing Dulbecco's Modified Eagle Medium (No. D-5648, manufactured by Sigma Co.) (prepared to have a concentration four times the final concentration) was added in an amount of 200 μl, and culturing was continued under the same conditions. Upon expiration of three days from stratification (Day 4), capillary-like tube formation was observed by a microscope, and an optional field of view was photographed with 100 magnifications, whereupon the number of capillary-like structures formed (the number of networks) were visually counted with reference to the method disclosed in a literature by Yeong, H. et al (Cancer Research, Vol. 56, 2428-2433, 1996). For each test sample, 2 well treatment was carried out, and a total of five fields of view were photographed for evaluation.

With `CS(=O)(=O)NC(=C[N+](=O)[O-])NNc1cc(C(F)(F)F)cc(Cl)n1` [Compound No. 157, N-(1-(6-chloro-4-trifluoromethyl-2-pyridyl)hydrazino-2-nitroethenyl)methanesulfonamide] the pIC50 (human MMP-7) was 4.78.

`CCOCCOc1cc(C(F)(F)F)cc(NNC(=C[N+](=O)[O-])NC)n1` [Compound No. 107] was tested, and the pIC50 (human MMP-7) was 4.73, the “inhibition ratio of tumor growth of Meth A/AD” value ([1]; 100 mg/kg) was 63.5% and the “Tumor growth inhibition ratio (%)” value ([1]; intraperitoneal, Day 22) was 63.5* %. For the same compound, the “Tumor volume (Day 22) Average ± standard deviation” value ([1]; intraperitoneal, Day 22, vehicle control 1058 ± 556) was 386 ± 275* mm^3, the “Inhibition ratio (%) against capillary-like tube formation” value ([2]; 0.1 μM) was 35* % and the “Number of networks Average ± SD” value ([2]; 0.1 μM) was 20.0 ± 5.7. The “Inhibition ratio (%) against capillary-like tube formation” value ([2]; 1 μM) was 41* %, the “Number of networks Average ± SD” value ([2]; 1 μM) was 18.2 ± 1.6 and the “Inhibition ratio (%) against capillary-like tube formation” value ([2]; 10 μM) was 62* %. For the same compound, the “Number of networks Average ± SD” value ([2]; 10 μM) was 11.8 ± 5.0, the “Inhibition ratio (%) against capillary-like tube formation” value ([2]; 100 μM) was 93* % and the “Number of networks Average ± SD” value ([2]; 100 μM) was 2.0 ± 2.8.

In the case of `CCOCCOc1cc(C(F)(F)F)cc(NNC(=C[N+](=O)[O-])NS(C)(=O)=O)n1` [Compound No. 164, N-(1-(6-(2-ethoxyethoxy)-4-trifluoromethyl-2-pyridyl)hydrazino-2-nitroethenyl)methanesulfonamide], the pIC50 (human MMP-7) was 4.92, the “inhibition ratio of tumor growth of Meth A/AD” value ([1]; 30 mg/kg) was 49.8% and the “Tumor growth inhibition ratio (%)” value ([1]; intraperitoneal, Day 24) was 49.8* %. For the same compound, the “Tumor volume (Day 24) Average ± standard deviation” value ([1]; intraperitoneal, Day 24, vehicle control 2045 ± 987) was 1027 ± 907* mm^3, the “Inhibition ratio (%) against capillary-like tube formation” value ([2]; 0.1 μM) was 23% and the “Number of networks Average ± SD” value ([2]; 0.1 μM) was 23.6 ± 3.2. The “Inhibition ratio (%) against capillary-like tube formation” value ([2]; 1 μM) was 44* %, the “Number of networks Average ± SD” value ([2]; 1 μM) was 17.2 ± 4.1 and the “Inhibition ratio (%) against capillary-like tube formation” value ([2]; 10 μM) was 44* %. For the same compound, the “Number of networks Average ± SD” value ([2]; 10 μM) was 17.2 ± 6.0, the “Inhibition ratio (%) against capillary-like tube formation” value ([2]; 100 μM) was 66* % and the “Number of networks Average ± SD” value ([2]; 100 μM) was 10.4 ± 5.7.
